According to patent publication US7910579B2, “Benzoxazole derivatives” (Tohoku University, priority 2006, dated 2011):
Where two headings read alike, the source gives them in different places.

Experiments:
[1] = tested on: histidine-requiring Salmonella typhimurium TA100 and TA98 strains; settings: cited from earlier work
Acute Toxicity Test = assay type: in vivo; settings: Crj:CD1 male mice, tail vein, observed for 7 days
Protocol: The compounds of the invention were tested for their acute toxicity through intravenous administration thereof to mice. Four Crj:CD1 male mice formed one test group, and some test groups of those mice were used (the mean body weight of the mice of each group was from 31 to 32 g). A test compound was dissolved in a mixture of 1 N HCl, polyethylene glycol-400 and distilled water, or dissolved in DMSO, and then diluted with distilled water. This was administered to each mouse via its tail vein.

[2] = Brain Permeability Test Through HPLC; assay type: in vivo; settings: mice, 2 minutes after intravenous administration
Protocol: A compound of the invention was intravenously administered to mice, and tested for its in-vivo brain permeability in the mice.
(1) Slc:ICR mice (by Nippon SLC) (body weight, 30 to 40 g; n=3) were used.
(2) A test compound was dissolved in a mixture of 5% Tween 80-5% ethyl alcohol-5% 1 N HCl-physiological saline water, and injected into the test mouse via its tail vein. Two minutes after the administration, the blood was collected from the test mouse under ether anesthesia via its abdominal aorta using a heparin-steeped syringe, and the brain material was collected from it.
(3) After collected, the blood was centrifuged at 4° C. and 14,000 rpm for 10 minutes, and the supernatant was stored at −80° C. as plasma. After collected, the brain material (including the cerebellum) was stored at −80° C.
(4) 0.3 ml of acetonitrile was added to 0.1 ml of the plasma, then vortexed, and centrifuged at 4° C. and under 10,000 G for 5 minutes. After centrifuged, 0.2 ml of the resulting supernatant was transferred into Mini-Uniprep (Whatman), then 0.2 ml of 20 mM phosphate buffer was added to it and filtered. 0.2 ml of the resulting filtrate was analyzed through HPLC (Shiseido Nanospace SI-2; pump, 3001; UV-VIS detector, 3002; column thermostat, 3004; fluorescence detector, 3013).
(5) 2 ml of methanol was added to the brain, homogenized, and centrifuged at 4° C. and 3000 or 4000 rpm for 10 minutes. After centrifuged, 500 μl of the resulting supernatant was diluted 10-fold with 20 mM phosphate buffer. (i) 2 to 3 ml of acetonitrile, (ii) 2 to 5 ml of methanol and (iii) 4 to 6 ml of ultra-pure water were led through a cartridge for solid-phase extraction (J. T. Baker Speedisk) in that order, and the 10-fold diluted supernatant solution was led through it. Via an empty syringe, air was applied to the cartridge for solid-phase extraction, two or three times to remove water, and then this was eluted with about 500 μl of acetonitrile or methanol, and the eluate was diluted 2-fold with 20 mM phosphate buffer. 0.2 ml of the resulting solution was analyzed through HPLC.
(6) The test compound content in the plasma and in the brain was determined relative to the dose of the compound (% ID (injected dose)/g or ml).

[3] = tested on: histidine-requiring Salmonella typhimurium TA100 and TA98 strains; test: Mutagenicity Test (reverse mutation test); assay type: cell-based; settings: for Relative Activity in the presence of S9Mix / Relative Activity in the absence of S9Mix: reverse mutation test
Protocol: In view of their use, it is desirable that the compounds of the invention have no mutagenicity or have little mutagenicity to a level causing no problem. For investigating the gene mutagenesis of the compounds of the invention, herein carried out was a reverse mutation test with histidine-requiring Salmonella typhimurium TA100 and TA98 strains. Two tests were carried out. One is a test for dose determination test; and the other is for mutagenicity.
The test methods and the mutagenicity of the compounds of the invention are mentioned below. In the dose determination test, six doses of 0.160, 0.800, 4.00, 20.0, 100 and 500 μg/plate (common ratio 5) were tried.
As a result of the dose determination test, when the mutagenicity of the test compound was admitted, then the actual test for mutagenicity was carried out, using the dose capable of giving an accurate dose-reaction curve. When no mutagenicity of the test compound was admitted in the dose determination test and when the growth inhibition of the test cells was admitted therein, then the dose to present the growth inhibition was taken as the maximum dose; and when the growth inhibition was not admitted, then a dose of 5000 μg/plate was taken as the maximum dose. With that, the actual test for mutagenicity was carried out on the level of 6 doses (common ratio 2).
First, a test compound was dissolved or suspended in DMSO, then diluted in order to prepare test compound liquids having a varying concentration.
100 μl of a test compound liquid or a negative control (DMSO) solution was put into a sterilized test tube. Then, for the case in the absence of a metabolic activation system (−S9mix), 500 μl of 0.1 mol/liter sodium-phosphate buffer (pH 7.4) was added to it; and for the case in the presence of a metabolic activation system (+S9mix), 500 μl of S9mix was added to it.
Next, 100 μl of the test strain suspension that had been cultivated with shaking at 37° C. for 8 hours was added to it, and preincubated in a shaking thermostat at 37° C. for 20 minutes. After shaken, 2 ml of top agar was added to it, and the contents were mixed.
Next, the mixture was poured onto a minimal glucose agar plate medium (plate) and spread uniformly thereon, then the top agar was solidified, and the plate was transferred into a thermostat and incubated at 37° C. for 48 hours.
Then, the number of the colonies grown through reverse mutation was counted.
For counting it, […]. After area correction and miss-counting correction, the number of the colonies was computed. When the colony analyzer could not be used owing to the deposition of the test compound or the cell growth inhibition, then the number of the colonies was counted with the naked eye.
In case where the number of the colonies through reverse mutation increased two times or more that of the negative control and where the dose dependency or the reproducibility of the increase was admitted, then the tested sample was decided as positive. When the sample was is decided as positive, then the relative activity that indicates the relative comparative value of the intensity of the mutagenicity of the test compound was obtained according to the following formula: Relative Activity={(number of colonies per plate having the concentration)−(number of colonies per negative control plate)}/the value of concentration (mg/plate).

Amyloid β protein 1-40 = biological target: T1, Amyloid β protein 1-40 (Homo sapiens, UniProt P05067); test: Fluorescence Congo Red Method; assay type: binding; settings: 1 h, compound 10 μM, amyloid β protein 5 μM
T1 construct: Amyloid β protein 1-40 (bought from Peptide Laboratory); purchased Peptide Laboratory
T1 sequence (P05067 672-711): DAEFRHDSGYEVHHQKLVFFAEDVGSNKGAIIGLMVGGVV
Protocol: Next described is a screening method for the compounds of the invention. Some of the compounds of the invention could not be screened according to a Thioflavin T method, since their fluorescence wavelength overlaps with that of Thioflavin T. For such compounds, the following novel screening method was introduced. (1) Amyloid β protein 1-40 (bought from Peptide Laboratory) was dissolved in a phosphate buffer (pH 7.4) and left at 37° C. for 4 days. (2) 50 μl of Congo red dissolved in the buffer was applied to a 96-well microplate (final concentration, 0.1, 0.3, 1 μM). (3) 100 μl of amyloid β protein was added to it (final concentration 5 μM), and left as such for 30 minutes. (4) 100 μl of a test compound dissolved in the buffer was added to it (final concentration, 10 μM, and left as such for 60 minutes. (5) Using a fluorescence microplate reader (Spectra Max 190 by Molecular Device), the sample was analyzed at the optimum exciting wavelength and the test wavelength that had been previously determined. (6) The fluorescence intensity in the presence of the test compound, amyloid β protein and Congo red is represented by A; that in the presence of the test compound and Congo red is by B; that in the presence of the test compound and amyloid β protein is by C; and that in the presence of only the test compound is by D. The β structure recognition of the test compound is computed according to the following formula: β structure recognition (%) of test compound={(A−B)/(C−D)}×100. (7) It may be said that the test compound having a higher β structure recognition percentage may have higher binding specificity to amyloid β protein.

[4] = biological target: T2, amyloid β protein in the brain section of an Alzheimer disease patient (Homo sapiens, UniProt P05067); test: Staining test on a brain section of an Alzheimer disease patient: amyloid β protein; assay type: binding
T2 construct: from tissue; host or cells: paraffin-embedded temporal lobe and hippocampus of Alzheimer disease patients
T2 sequence (P05067 672-713 limits assumed): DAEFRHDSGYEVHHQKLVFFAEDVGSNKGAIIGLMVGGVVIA
Description: (§1) (1) Brain specimens at the temporal lobe and the hippocampus of patients to which a definitive diagnosis of Alzheimer disease had been given, and those of normal senile persons were used. The specimens were given by our coworker, Fukushimura Hospital, Longevity Medicine Institute, and we were given their consent of use of the specimens for our study purpose by the bereaved of the patients (Fukushimura Hospital Ethical Review Board Approval No. 20).
(§2) (2) The paraffin-embedded brain tissue was cut Into slices having a thickness of 6 μm or 8 μm, and extended and dried on a slide. The paraffin brain section was steeped for paraffin removal in xylene twice for 10 minutes, 100% ethanol twice for 5 minutes, 90% ethanol for 5 minutes and running water for 10 minutes in that order.
(§3) (3) For pretreatment prior to the staining treatment with a compound of the invention, the sections were steeped for autofluorescence removal with lipofuscin. First, the paraffin-removed sections were dipped in 0.25% KMnO4 solution for 20 minutes. These were washed with PBS, twice for 2 minutes, then dipped in 0.1% K2S2O5/oxalic acid solution for about 5 seconds, and then further washed with PBS, three times for 2 minutes.
(§4) (4) About 150 μl of a 100 μM solution of a compound of the invention dissolved in 50% ethanol was dropwise applied to the section and reacted for 10 minutes. After dipped five times in tap water, the section was entrapped with Fluor Save Reagent (Calbiochem), and analyzed through microscopy with a fluorescence microscope (Nikon, Eclipse 80i). The images were taken with a digital camera (Nikon Dxm 1200F or Photometrics' Cool SNAP ES).
(1) After paraffin removal, the sections were washed in distilled water, twice for 2 minutes. Then, using ImmunoPen, the tissue was marked with a surrounding line; about 150 μl of formic acid was dropwise applied to the section and statically left at room temperature for 5 minutes. The section was washed with tap water for 5 minutes, then dipped in cold PBS-Tween 20 for 2 minutes, and thereafter about 150 μl of 0.05% trypsin solution was dropwise applied to it and reacted at 37° C. for 15 minutes.
(2) In an ice bath, this was washed with cold PBS-Tween 20, twice for 5 minutes, and then 2 drops of blocking serum were applied to it and reacted at 37° C. for 30 minutes. Excess water was removed, and then about 150 μl of a specific antibody to amyloid β protein, 6F/3D (by DAKO, 1/50 dilution) was dropwise applied to it, and reacted at 37° C. for 1 hour.
(3) Further, this was washed with cold PBS-Tween 20, 5 times for 2 minutes, and then 2 drops of an anti-mouse IgG (H+L), goat, biotin-binding solution were applied to it and reacted at 37° C. for 1 hour. Then, this was washed with cold PBS-Tween 20, three times for 2 minutes, and 2 drops of an ABC solution (streptoavidin-biotin-peroxidase composite solution) were applied to it, and left statically as such for 30 minutes. Again this was washed with cold PBS-Tween 20, three times for 2 minutes, and then about 150 μl of a DAB solution (10 mg of DAB was dissolved in 20 ml of 0.05 mol/liter tris-HCl buffer, and just before use, 100 μl of 3% hydrogen peroxide water was added to it) was dropwise applied to it for sufficiently staining it. Then, this was washed with distilled water for 1 minute to stop the reaction, then entrapped and observed through microscopy.

[5] = tested on: neurofibrillary tangle in the brain section of an Alzheimer disease patient; test: Staining test on a brain section of an Alzheimer disease patient: neurofibrillary tangle; assay type: binding, human; settings: 100 μM solution in 50% ethanol, 10 minutes, paraffin brain section
Description: as §1, §2, §3
as §4, with “ES). […]” for “ES).”

[6] = Congo red 0.1 μM, read-out: Binding Percentage of Compound in the presence of 0.1 μM CR
[7] = Congo red 0.3 μM, read-out: Binding Percentage of Compound in the presence of 0.3 μM CR
[8] = Congo red 1 μM, read-out: Binding Percentage of Compound in the presence of 1 μM CR

Structure (SMILES)	Maximum Permissible Dose (mg/kg, intravenous administration) (Acute Toxicity Test)	Brain Permeability: Brain [2]	Brain Permeability: Plasma [2]	Relative Activity in the presence of S9Mix [3]	Relative Activity in the absence of S9Mix [3]	activity at 10 µM (Amyloid β protein 1-40; [6]) [%]	activity at 10 µM (Amyloid β protein 1-40; [7]) [%]	activity at 10 µM (Amyloid β protein 1-40; [8]) [%]	other results
CC(=C(C#N)C#N)c1ccc2cc(N(C)CCF)ccc2c1 [FDDNP]									Relative Activity in the absence of S9Mix [1]: 3,564,960; Relative Activity in the presence of S9Mix [1]: minus
CN1CCN(c2ncc(/C=C/c3nc4ccc(OC(CO)CF)cc4o3)s2)CC1 (centres unmarked) [THK-707, (E)-6-[(1-fluoromethyl-2-hydroxy)ethoxy]-2-[2-[2-(4-methylpiperazin-1-yl)thiazol-5-yl]ethenyl]benzoxazole]	≧10 mg/kg	4.4 % ID/g or ml	0.58 % ID/g or ml	minus	264	66.8	36.4	29.7	Relative activity (mutagenicity) ([3]; in the presence of S9mix): weak
CN1C=CC(=CC=C2C=CC(=O)C=C2)C=C1 [THK-317, 4-[2-(1-methyl-1H-pyridin-4-ylidene)-ethylidene]-cyclohexa-2,5-dienone]									Binding to (staining of) amyloid β protein in the brain section of an Alzheimer disease patient ([4]; 100 μM solution in 50% ethanol, 10 minutes, paraffin brain section): bound to the amyloid β protein; Specificity to amyloid β ([4]; statement in the description of formulae (II) to (VI)): high specificity to amyloid β; Binding to (staining of) neurofibrillary tangle in the brain section of an Alzheimer disease patient [5]: bound to the amyloid β protein and the neurofibrillary tangle
OCC(CF)Oc1ccc2nc(/C=C/c3cnc(N4CCCCC4)s3)oc2c1 (centres unmarked) [THK-713]	≧10 mg/kg	5.9 % ID/g or ml	3.29 % ID/g or ml	minus	minus	58.2	21.2	3	Relative activity (mutagenicity) ([3]; irrespective of the absence or presence of S9mix): minus
CN(C)c1ccc(-c2cn3cc(I)ccc3n2)cc1 [IMPY]									Relative activity (mutagenicity) ([1]; in the presence of S9mix, literature compounds): extremely high; Relative Activity in the presence of S9Mix ([1]; reverse mutation test, +S9mix, data from PCT/JP03/07183 (WO03/106439)): minus; Relative Activity in the absence of S9Mix ([1]; reverse mutation test, -S9mix, data from PCT/JP03/07183 (WO03/106439)): 3,326,100
